Holding throughout (format): functional
For test [1], the system named is CHO-K1. In words: Counterscreen for antagonists of the orexin 1 receptor (OX1R; HCRTR1): Homogeneous time resolved fluorescence (HTRF)-based cell-based dose response assay to identify antagonists of the parental CHO-K1 cell line. [Related pubchem assays (depositor defined):AID434989, AID435008, AID463079, AID485270, AID492963, AID492964, AID492965, AID493232, AID504699, AID504701]. Conditions: Cricetulus griseus.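 Note: potency for inhibition of ATP-stimulated IP1 production as antagonists.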

Test [2] can be described thus: Counterscreen for antagonists of the orexin 1 receptor (OX1R; HCRTR1): Fluorescence-based cell-based high throughput dose response assay to identify antagonists of the parental CHO cell line. [Related pubchem assays (depositor defined):AID434989, AID435008, AID463079, AID485270, AID492963, AID492964, AID492965, AID493232, AID504699, AID504701].
For test [3], the target named is T1, Orexin/Hypocretin receptor type 1 (Homo sapiens, UniProt O43613).
T1 sequence (O43613 whole entry): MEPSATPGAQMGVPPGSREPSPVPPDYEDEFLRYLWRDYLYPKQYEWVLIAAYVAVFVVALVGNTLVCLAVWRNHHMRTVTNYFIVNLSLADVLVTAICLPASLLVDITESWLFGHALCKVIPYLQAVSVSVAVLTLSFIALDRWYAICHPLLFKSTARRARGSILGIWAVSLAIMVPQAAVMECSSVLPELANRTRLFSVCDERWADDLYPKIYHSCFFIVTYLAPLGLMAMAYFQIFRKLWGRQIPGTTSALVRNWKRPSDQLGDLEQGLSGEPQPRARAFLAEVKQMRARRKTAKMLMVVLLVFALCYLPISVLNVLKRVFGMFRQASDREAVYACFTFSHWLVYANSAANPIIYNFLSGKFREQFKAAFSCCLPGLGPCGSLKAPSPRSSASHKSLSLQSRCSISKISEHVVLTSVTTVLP
In words: Homogeneous Time Resolved Fluorescence (HTRF)-based cell-based high throughput dose response assay for antagonists of the orexin 1 receptor (OX1R; HCRTR1). [Related pubchem assays (depositor defined):AID434989, AID435008, AID463079, AID485270, AID492963, AID492964, AID492965, AID493232, AID504717, AID504718].

The target of test [4] is T1, Orexin/Hypocretin receptor type 1. In words: Fluorescence-based cell-based high throughput dose response assay for antagonists of the orexin 1 receptor (OX1R; HCRTR1). [Related pubchem assays (depositor defined):AID434989, AID435008, AID463079, AID485270, AID492963, AID492964, AID492965, AID493232, AID504717, AID504718].
Test [5] has as its target T2, Orexin receptor type 2 (Homo sapiens, UniProt O43614).
T2 sequence (O43614 whole entry): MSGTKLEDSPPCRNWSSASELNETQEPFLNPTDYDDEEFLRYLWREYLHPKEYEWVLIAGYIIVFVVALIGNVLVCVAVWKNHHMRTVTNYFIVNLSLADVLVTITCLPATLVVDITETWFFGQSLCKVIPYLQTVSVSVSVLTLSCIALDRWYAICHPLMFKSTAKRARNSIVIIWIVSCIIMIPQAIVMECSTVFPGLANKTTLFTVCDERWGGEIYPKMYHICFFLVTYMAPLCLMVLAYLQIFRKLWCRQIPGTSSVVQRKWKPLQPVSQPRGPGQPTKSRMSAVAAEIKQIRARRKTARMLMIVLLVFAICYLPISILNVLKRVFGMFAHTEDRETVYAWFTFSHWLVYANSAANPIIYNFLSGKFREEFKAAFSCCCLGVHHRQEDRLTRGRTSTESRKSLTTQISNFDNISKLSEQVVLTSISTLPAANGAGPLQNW
In words: Counterscreen assay for antagonists of the orexin 1 receptor (OX1R; HCRTR1): Fluorescence-based cell-based dose response assay for antagonists of the orexin 2 receptor (OX2R; HCRTR2), run by assay provider. For orientation: Counterscreens check selectivity or assay interference.

For test [6], the target named is T2, Orexin receptor type 2. In words: Counterscreen assay for antagonists of the orexin 1 receptor (OX1R; HCRTR1): Homogeneous Time Resolved Fluorescence (HTRF)-based cell-based dose response assay for antagonists of the orexin 2 receptor (OX2R; HCRTR2), run by assay provider.
The target in test [7] is T3, Caspase-3 (Homo sapiens, UniProt P42574).
T3 sequence (P42574 whole entry): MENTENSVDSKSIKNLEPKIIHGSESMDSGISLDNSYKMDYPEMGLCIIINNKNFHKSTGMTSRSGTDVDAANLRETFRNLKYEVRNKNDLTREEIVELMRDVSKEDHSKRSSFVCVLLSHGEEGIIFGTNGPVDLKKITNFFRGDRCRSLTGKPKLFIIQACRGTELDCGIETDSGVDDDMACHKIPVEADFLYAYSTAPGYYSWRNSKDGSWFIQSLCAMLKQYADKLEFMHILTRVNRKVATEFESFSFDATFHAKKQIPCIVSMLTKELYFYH

Test [8] has as its target T4, Sentrin-specific protease 7 (Homo sapiens, UniProt Q9BQF6).
T4 sequence (Q9BQF6 whole entry): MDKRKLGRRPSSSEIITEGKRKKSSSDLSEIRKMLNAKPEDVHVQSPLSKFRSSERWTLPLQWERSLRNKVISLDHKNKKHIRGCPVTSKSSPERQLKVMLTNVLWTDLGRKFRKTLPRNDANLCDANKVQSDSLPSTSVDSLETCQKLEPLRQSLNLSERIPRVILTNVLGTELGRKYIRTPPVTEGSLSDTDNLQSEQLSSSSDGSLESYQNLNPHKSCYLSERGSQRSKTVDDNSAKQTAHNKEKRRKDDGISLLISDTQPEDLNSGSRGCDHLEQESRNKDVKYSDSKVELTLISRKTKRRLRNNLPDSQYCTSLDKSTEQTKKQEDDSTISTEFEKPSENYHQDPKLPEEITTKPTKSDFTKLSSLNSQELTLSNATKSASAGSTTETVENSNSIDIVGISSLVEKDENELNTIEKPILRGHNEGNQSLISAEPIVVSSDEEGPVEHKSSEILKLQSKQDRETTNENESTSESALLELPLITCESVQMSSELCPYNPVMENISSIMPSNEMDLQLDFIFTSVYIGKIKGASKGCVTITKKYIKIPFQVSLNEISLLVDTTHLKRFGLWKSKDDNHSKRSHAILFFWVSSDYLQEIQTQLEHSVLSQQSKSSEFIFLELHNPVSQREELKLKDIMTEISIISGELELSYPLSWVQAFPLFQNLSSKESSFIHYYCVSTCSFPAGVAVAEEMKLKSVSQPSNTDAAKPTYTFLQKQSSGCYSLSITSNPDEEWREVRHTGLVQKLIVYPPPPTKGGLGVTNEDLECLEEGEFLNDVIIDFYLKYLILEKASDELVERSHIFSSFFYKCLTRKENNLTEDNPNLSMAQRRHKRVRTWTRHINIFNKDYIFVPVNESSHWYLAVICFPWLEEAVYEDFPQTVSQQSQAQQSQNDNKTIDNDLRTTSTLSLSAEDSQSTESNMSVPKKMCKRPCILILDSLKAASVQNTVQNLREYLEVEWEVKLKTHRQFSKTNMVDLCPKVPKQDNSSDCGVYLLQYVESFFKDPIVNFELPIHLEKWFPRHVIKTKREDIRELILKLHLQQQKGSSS

The target in test [9] is T5, Sentrin-specific protease 6 (Homo sapiens, UniProt Q9GZR1).
T5 sequence (Q9GZR1 whole entry): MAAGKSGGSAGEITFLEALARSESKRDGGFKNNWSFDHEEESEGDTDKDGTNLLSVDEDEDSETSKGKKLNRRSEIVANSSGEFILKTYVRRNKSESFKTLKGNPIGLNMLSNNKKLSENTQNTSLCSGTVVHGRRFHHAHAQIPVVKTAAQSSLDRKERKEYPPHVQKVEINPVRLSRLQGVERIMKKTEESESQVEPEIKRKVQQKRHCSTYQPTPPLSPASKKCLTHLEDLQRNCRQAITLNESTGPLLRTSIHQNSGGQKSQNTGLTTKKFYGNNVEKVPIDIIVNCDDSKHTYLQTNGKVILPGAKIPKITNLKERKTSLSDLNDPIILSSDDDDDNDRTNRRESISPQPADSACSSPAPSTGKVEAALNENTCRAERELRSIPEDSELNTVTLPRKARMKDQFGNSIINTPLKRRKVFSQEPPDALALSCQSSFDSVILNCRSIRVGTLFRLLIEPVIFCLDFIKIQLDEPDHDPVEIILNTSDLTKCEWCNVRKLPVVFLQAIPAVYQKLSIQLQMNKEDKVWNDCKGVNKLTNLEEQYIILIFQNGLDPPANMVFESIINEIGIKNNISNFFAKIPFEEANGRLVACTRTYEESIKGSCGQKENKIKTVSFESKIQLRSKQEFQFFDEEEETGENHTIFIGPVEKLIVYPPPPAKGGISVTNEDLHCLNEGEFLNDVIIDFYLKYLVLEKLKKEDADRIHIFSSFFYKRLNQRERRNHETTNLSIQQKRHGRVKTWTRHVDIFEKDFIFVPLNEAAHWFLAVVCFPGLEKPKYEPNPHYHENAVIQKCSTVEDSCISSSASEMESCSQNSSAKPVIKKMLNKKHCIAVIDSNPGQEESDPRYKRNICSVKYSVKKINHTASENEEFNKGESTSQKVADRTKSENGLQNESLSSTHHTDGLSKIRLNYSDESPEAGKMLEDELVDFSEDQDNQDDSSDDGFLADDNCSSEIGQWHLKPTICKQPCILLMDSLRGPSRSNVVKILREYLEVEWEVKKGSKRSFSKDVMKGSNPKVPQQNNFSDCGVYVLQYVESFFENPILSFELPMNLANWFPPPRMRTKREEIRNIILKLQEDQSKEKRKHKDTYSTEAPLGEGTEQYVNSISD

Test [10] addresses T6, Sentrin-specific protease 8 (Homo sapiens, UniProt Q96LD8).
T6 sequence (Q96LD8 whole entry): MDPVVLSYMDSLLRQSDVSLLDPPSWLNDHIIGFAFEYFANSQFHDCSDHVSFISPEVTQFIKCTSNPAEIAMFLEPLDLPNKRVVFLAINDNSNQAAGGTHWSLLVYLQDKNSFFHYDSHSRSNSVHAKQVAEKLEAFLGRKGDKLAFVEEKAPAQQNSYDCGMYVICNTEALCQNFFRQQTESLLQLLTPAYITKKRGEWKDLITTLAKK

For test [11], the target named is T6, Sentrin-specific protease 8. In words: inhibition of human SENP8 cleavage activity – biochemical, luminescence, SAR follow-up (AID 504501).
The target in test [12] is T3, Caspase-3. In words: SAR Analysis of small molecule inhibitors of Sentrin-specific proteases (SENPs) using a Caspase-3 Selectivity assay. [Related pubchem assays (depositor defined):AID2540, AID2599, AID434973, AID489001].
The target in test [13] is T5, Sentrin-specific protease 6. In words: SAR Analysis of small molecule inhibitors of Sentrin-specific protease 6 (SENP6) using a Luminescent assay. [Related pubchem assays (depositor defined):AID2582, AID2599].
Test [14] relates to HeLa. In words: ATP-based viability loss in HeLa cells – cell-based, CellTiter-Glo luminescence, cherry-pick samples, cytotoxicity control for MITF activator project, dose response (AID 540259). As to conditions: Homo sapiens. (ATP-based viability assays read luminescence as a measure of living cells.)
Test [15] concerns the target T4, Sentrin-specific protease 7. In words: inhibition of human SENP7 cleavage activity – biochemical, luminescence, SAR follow-up (AID 504497).

Active and inactive are the calls of the source. Where only a bound is given, the exact number is not on record here.

Consider three compounds from ChEMBL document CHEMBL1201862, “PubChem BioAssay data set” (2004).

As usually defined, the IC50 is the concentration needed to halve the response being measured. In the case of `C=CCSC1=C(C#N)C(c2ccccc2Cl)C(C(=O)c2cccs2)C(O)(C(F)(F)F)N1` (stereo unspecified), the IC50 was > 66.2 µM (inactive) in test [1]; 25 µM (inactive) in test [2]; 0.405 µM (active) in [3]; 1.62 µM (active) in test [4]; 10.3 µM (inactive) in [5]; 15.2 µM (inactive) in test [6].
For orientation: AC50 means the concentration at which the activity in the assay is half-maximal. For `Fc1ccccc1COc1ccc(C(=S)N2CCCC2)cc1`, the IC50 in test [7] is 9.99 µM (active); in test [8], 10.9 µM (active); in [9], 17.1 µM (active); in [10] it was 3.21 µM (active); in test [11] it was 1.55 µM (active); in [12], 0.742 µM (active). The IC50 in test [13] was 1.17 µM (active); in [15], 1.64 µM (active). Further, the concentration at half-maximal activity (AC50) in test [14] was 162 µM (active).
As to `c1ccc(N2CCN(c3ncnc4c3oc3ccccc34)CC2)cc1`, the IC50 in [1] was > 66.3 µM (inactive); in test [2] it was 17.7 µM (inactive); in [3] it was 4.71 µM (active); in test [4], 12.4 µM (inactive); in [5], > 88.8 µM (inactive); in test [6] it was > 50 µM (inactive).
